Test results from patent publication US9957264B2 (Merck Sharp & Dohme Corp., priority 2013, dated 2018).

How the values were obtained:
[1] = biological target: JAK2 (recombinant purified GST-tagged catalytic domain) (Homo sapiens (Human), UniProt O60674); assay: Jak Biochemical HTRF Assay (JAK2); settings: [ATP] 8.5 μM
Procedure: Jak Biochemical HTRF Assay Protocol
The ability of compounds to inhibit the activity of JAK1, JAK2, JAK3, and Tyk2 was measured using a recombinant purified GST-tagged catalytic domain for each enzyme (Invitrogen JAK1 #M4290, JAK2 #M4290, JAK3 #M4290, Tyk2 #M4290) in an HTRF format biochemical assay. […] The basic assay protocol is as follows: First, 250 nL of diluted compounds in DMSO were dispensed into the wells of a dry 384-well Black plate (Greiner #781076) using a Labcyte Echo 555 acoustic dispenser. Subsequent reagent additions employed an Agilent Bravo. […] After equilibration, 2 μL of 10×ATP in 1× assay buffer was added to initiate the kinase reaction and the plates were shaken and then incubated at room temperature for 120 minutes. […] Plates were shaken and centrifuged and then incubated 60 minutes at room temperature and then read on a Perkin Elmer Envision (λex=337 nm, λem=665 and 615 nm, TRF delay time=20 μs). HTRF signal=10,000*665 nm reading/615 nm reading. After normalization to untreated controls, the percent inhibition of the HTRF signal at each compound concentration was calculated. The plot of percent inhibition versus the log of compound concentration was fit with a 4-parameter dose response equation to calculate IC50 values.
Final reaction conditions were:
Examples of the instant invention were evaluated in JAK1 and JAK2 in vitro binding assays as described above.

[2] = biological target: JAK1 (recombinant purified GST-tagged catalytic domain) (Homo sapiens (Human), UniProt P23458); assay: Jak Biochemical HTRF Assay (JAK1); settings: [ATP] 31.8 μM
Sequence of JAK1 (recombinant purified GST-tagged catalytic domain) (P23458 875-1153): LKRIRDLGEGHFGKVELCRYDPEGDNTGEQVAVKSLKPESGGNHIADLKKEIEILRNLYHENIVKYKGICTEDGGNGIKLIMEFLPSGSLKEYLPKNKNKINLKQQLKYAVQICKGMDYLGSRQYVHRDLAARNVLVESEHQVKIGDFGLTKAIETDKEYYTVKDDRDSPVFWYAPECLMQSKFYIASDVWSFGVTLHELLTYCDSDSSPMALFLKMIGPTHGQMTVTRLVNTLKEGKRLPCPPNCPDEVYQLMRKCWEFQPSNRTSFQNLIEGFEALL
Method in brief: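 GST-tagged human catalytic domains of JAK1 or JAK2 phosphorylated a biotinylated peptide substrate for 120 min at room temperature after ATP addition. Reaction quenched with EDTA stop buffer containing streptavidin-Dylight 650 and Eu-pY20 antibody; HTRF 665/615 nm ratio normalized to untreated controls, IC50 from 4-parameter fit.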

Sequence of JAK2 (recombinant purified GST-tagged catalytic domain) (O60674 849-1124): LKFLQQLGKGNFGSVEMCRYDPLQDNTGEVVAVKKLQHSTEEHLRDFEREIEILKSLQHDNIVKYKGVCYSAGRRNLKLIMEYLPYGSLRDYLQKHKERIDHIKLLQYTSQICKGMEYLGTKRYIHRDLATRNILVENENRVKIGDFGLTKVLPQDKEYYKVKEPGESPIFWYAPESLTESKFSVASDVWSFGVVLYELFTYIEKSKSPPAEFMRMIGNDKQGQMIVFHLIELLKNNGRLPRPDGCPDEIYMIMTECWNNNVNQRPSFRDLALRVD

| IC50 [1] [nM] | IC50 [2] [nM] | SMILES |
| --- | --- | --- |
| 0.17 | 0.18 | Cc1cc(Nc2nn(C3(CC#N)CCN(C(=O)OC(C)(C)C)CC3)c3cc[nH]c(=O)c23)ccc1C(=O)N1CCOCC1 [Example 21-20, tert-butyl 4-(cyanomethyl)-4-(3-(3-methyl-4-(morpholine-4-carbonyl)phenylamino)-4-oxo-4,5-dihydropyrazolo[4,3-c]pyridin-1-yl)piperidine-1-carboxylate] |
| 1.03 | 0.38 | CO[C@@H](c1ccc(Nc2nn([C@]3(CC#N)CC[C@@H](C(=O)OC(C)(C)C)OC3)c3cc[nH]c(=O)c23)cc1)C(F)(F)F (single isomer, unassigned) [Example 21-8, (2S,5S)-tert-butyl 5-(cyanomethyl)-5-(4-oxo-3-((4-((S or R)-2,2,2-trifluoro-1-methoxyethyl)phenyl)amino)-4,5-dihydro-1H-pyrazolo[4,3-c]pyridin-1-yl)tetrahydro-2H-pyran-2-carboxylate] |
| 2.51 | 40.8 | CC(C)(C)OC(=O)N1CC(CC#N)(n2nc(NC3CC3)c3c(=O)[nH]ccc32)C1 [Example 3, tert-butyl 3-(cyanomethyl)-3-[3-(cyclopropylamino)-4-oxo-4,5-dihydro-1H-pyrazolo[4,3-c]pyridin-1-yl]azetidine-1-carboxylate] |
| 0.08 | 0.09 | Cc1cc(Nc2nn([C@@]3(CC#N)CCCC[C@H]3F)c3cc[nH]c(=O)c23)ccc1C(=O)N1CCSCC1 [Example 5-154, 2-((1R,2R)-2-fluoro-1-(3-((3-methyl-4-(thiomorpholine-4-carbonyl)phenyl)amino)-4-oxo-4,5-dihydro-1H-pyrazolo[4,3-c]pyridin-1-yl)cyclohexyl)acetonitrile] |
| 2.24 | 0.22 | CNC(=O)c1ccc(Nc2nn(C3(CC#N)CCCC3)c3cc[nH]c(=O)c23)cc1 [Example 5-128, 4-((1-(1-(cyanomethyl)cyclopentyl)-4-oxo-4,5-dihydro-1H-pyrazolo[4,3-c]pyridin-3-yl)amino)-N-methylbenzamide.] |
| 1.38 | 0.44 | CCS(=O)(=O)c1ccc(Nc2nn(C3(CC#N)CCCC3)c3cc[nH]c(=O)c23)cc1 [Example 5-133, 2-(1-(3-((4-(ethylsulfonyl)phenyl)amino)-4-oxo-4,5-dihydro-1H-pyrazolo[4,3-c]pyridin-1-yl)cyclopentyl) acetonitrile] |
| 1140 | 151 | COC1CN([C@H]2CC[C@@](CC#N)(n3nc(Nc4ccc(OC(F)(F)F)cc4)c4c(=O)[nH]ccc43)CC2)C1 [Example 18-15, Cis 2-(4-(3-methoxyazetidin-1-yl)-1-(4-oxo-3-((4-(trifluoromethoxy)phenyl)amino)-4,5-dihydro-1H-pyrazolo[4,3-c]pyridin-1-yl)cyclohexyl)acetonitrile] |
| 0.35 | 0.12 | CC(C)(C)OC(=O)N1CC[C@@](CC#N)(n2nc(Nc3ccc(S(C)(=O)=O)cc3)c3c(=O)[nH]ccc32)[C@@H](F)C1 [Example 5-16, tert-butyl (3S,4S)-4-(cyanomethyl)-3-fluoro-4-(3-{[4-(methyl-sulfonyl)phenyl]amino}-4-oxo-4,5-dihydro-1H-pyrazolo[4,3-c]pyridin-1-yl)piperidine-1-carboxylate] |
| 0.11 | 0.07 | CC(O)(c1ccc(Nc2nn([C@@]3(CC#N)CCCC[C@H]3F)c3cc[nH]c(=O)c23)cc1)C(F)(F)F (single isomer, unassigned) [Example 5-86, {(1R,2R)-2-fluoro-1-[4-oxo-3-({4-[(1R or 1S)-2,2,2-trifluoro-1-hydroxy-1-methylethyl]phenyl}amino)-4,5-dihydro-1H-pyrazolo[4,3-c]pyridin-1-yl]cyclohexyl}acetonitrile] |
| 0.09 | 0.05 | N#CC[C@]1(n2nc(Nc3ccc(C(N)C(F)(F)F)cc3)c3c(=O)[nH]ccc32)CCCC[C@H]1F (single isomer, unassigned) [Example 5-176, {(1R,2R)-1-[3-({4-[(1R or 1S)-1-amino-2,2,2-trifluoroethyl]phenyl}amino)-4-oxo-4,5-dihydro-1H-pyrazolo [4,3-c]pyridin-1-yl]-2-fluorocyclohexyl} acetonitrile] |
| 3.69 | 0.58 | N#CCC1(n2nc(Nc3ccc(C#N)cc3)c3c(=O)[nH]ccc32)CCCC1 [Example 5-124, 4-((1-(1-(cyanomethyl)cyclopentyl)-4-oxo-4,5-dihydro-1H-pyrazolo[4,3-c]pyridin-3-yl)amino) benzonitrile] |
| 0.07 | 0.07 | CCNC(c1ccc(Nc2nn([C@@]3(CC#N)CCCC[C@H]3F)c3cc[nH]c(=O)c23)cc1)C(F)(F)F (single isomer, unassigned) [Example 5-173, {(1R,2R)-1-[3-({4-[(1R or 1S)-1-(ethylamino)-2,2,2-trifluoroethyl]phenyl}amino)-4-oxo-4,5-dihydro-1H-pyrazolo [4,3-c]pyridin-1-yl]-2-fluorocyclohexyl} acetonitrile] |
| 0.5 | 0.45 | CC(C)(C)OC(=O)N1CCC(CC#N)(n2nc(Nc3ccc([C@]4(C(F)(F)F)CCCN4)cc3)c3c(=O)[nH]ccc32)CC1 (single isomer, unassigned) [Example 21-19, (S or R)-tert-butyl 4-(cyanomethyl)-4-(4-oxo-3-(4-(2-(trifluoromethyl)pyrrolidin-2-yl)phenylamino)-4,5-dihydropyrazolo[4,3-c]pyridin-1-yl)piperidine-1-carboxylate] |
| 0.51 | 0.12 | CC(C)(C)OC(=O)[C@@H]1CC[C@@](CC#N)(n2nc(Nc3ccc(C(O)C(F)(F)F)cc3)c3c(=O)[nH]ccc32)CO1 (single isomer, unassigned) [Example 5-168, (2S,5S)-tert-butyl 5-(cyanomethyl)-5-(4-oxo-3-((4-((S or R)-2,2,2-trifluoro-1-hydroxyethyl)phenyl)amino)-4,5-dihydro-1H-pyrazolo [4,3-c]pyridin-1-yl)tetrahydro-2H-pyran-2-carboxylate] |
| 0.39 | 0.18 | Cc1cc(Nc2nn([C@]3(CC#N)CC[C@@H](C(=O)OC(C)(C)C)OC3)c3cc[nH]c(=O)c23)ccc1C(=O)N1CCSC1 [Example 5-155, (2S,5S)-tert-butyl 5-(cyanomethyl)-5-(3-((3-methyl-4-(thiazolidine-3-carbonyl)phenyl)amino)-4-oxo-4,5-dihydro-1H-pyrazolo[4,3-c]pyridin-1-yl)tetrahydro-2H-pyran-2-carboxylate] |
| 11.9 | 0.45 | CC(C)(C)OC(=O)N1CCC(CC#N)(n2nc(Nc3ccccc3)c3c(=O)[nH]ccc32)CC1 [Example 1-2, tert-butyl 4-(cyanomethyl)-4-(4-oxo-3-(phenylamino)-4,5-dihydro-1H-pyrazolo[4,3-c]pyridin-1-yl)piperidine-1-carboxylate] |
| 100 | 6.62 | N#CC[C@@]1(n2nc(Nc3cc(F)c4nccc(Cl)c4c3)c3c(=O)[nH]ccc32)CCOC1 (single isomer, unassigned) [Example 5-243, [(3R or 3S)-3-{3-[(4-chloro-8-fluoroquinolin-6-yl)amino]-4-oxo-4,5-dihydro-1H-pyrazolo[4,3-c]pyridin-1-yl}tetrahydrofuran-3-yl]acetonitrile] |
| 1.31 | 0.33 | Cc1cc(Nc2nn([C@]3(CC#N)CCCOC3)c3cc[nH]c(=O)c23)ccc1C(=O)N1CCC(O)(C(F)(F)F)C1 (single isomer, unassigned) [Example 5-114, 2-((S)-3-(3-((4-((S or R)-3-hydroxy-3-(trifluoromethyl)pyrrolidine-1-carbonyl)-3-methylphenyl)amino)-4-oxo-4,5-dihydro-1H-pyrazolo[4,3-c]pyridin-1-yl)tetrahydro-2H-pyran-3-yl)acetonitrile] |
| 1.75 | 0.09 | N#CC[C@]1(n2nc(Nc3ccc(Cl)cc3)c3c(=O)[nH]ccc32)CC[C@H](N2CC(F)C2)CC1 [Example 18-6, Trans 2-(1-(3-((4-chlorophenyl)amino)-4-oxo-4,5-dihydro-1H-pyrazolo[4,3-c]pyridin-1-yl)-4-(3-fluoroazetidin-1-yl)cyclohexyl)acetonitrile] |
| 0.31 | 0.24 | CCNC(c1ccc(Nc2nn([C@]3(CC#N)CC[C@@H](C(=O)OC(C)(C)C)OC3)c3cc[nH]c(=O)c23)cc1)C(F)(F)F (single isomer, unassigned) [Example 5-208, (2S,5S)-tert-butyl 5-(cyanomethyl)-5-(3-((4-((R or S)-1-(ethylamino)-2,2,2-trifluoroethyl)phenyl)amino)-4-oxo-4,5-dihydro-1H-pyrazolo[4,3-c]pyridin-1-yl)tetrahydro-2H-pyran-2-carboxylate] |
| 0.28 | 0.22 | CN(C)S(=O)(=O)c1ccc(Nc2nn(C3(CC#N)CCN(C(=O)OC(C)(C)C)CC3)c3cc[nH]c(=O)c23)cc1 [Example 5-1, tert-butyl 4-(cyanomethyl)-4-(3-((4-(N,N-dimethylsulfamoyl)phenyl)amino)-4-oxo-4,5-dihydro-1H-pyrazolo[4,3-c]pyridin-1-yl)piperidine-1-carboxylate] |
